Results reported in the supplement of paper PMC11061612.

Assays:
[1] = compound: C1CC(C1)(C(=O)[O-])C(=O)[O-].N.N.[Pt+2] [Carboplatin]; conditions: max 10 µM
Method in brief: (§1)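 Cancer cell lines were seeded in 1536-well plates in 7.5 μl DMEM/F12 or RPMI with 10% FBS, held 24 hours at 37°C and 5% CO2, then dosed for 72 hours (final DMSO typically 0.2%). Viability was read by CellTiter-Glo 2.0 luminescence and scaled between blank-well and DMSO-well means. The single-agent IC50 comes from dose responses fitted to a two-parameter logistic curve with a non-linear mixed effects model.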

[2] = compound: C1CN(CCC1(C(=O)N[C@@H](CCO)C2=CC=C(C=C2)Cl)N)C3=NC=NC4=C3C=CN4 [AZD5363]; conditions: max 10 µM
Method in brief: as §1

[3] = compound: C=CCn1c(=O)c2cnc(Nc3ccc(N4CCN(C)CC4)cc3)nc2n1-c1cccc(C(C)(C)O)n1 [AZD1775]; conditions: max 3 µM
Method in brief: as §1

[4] = compound: CC(=O)Nc1cccc(-n2c(=O)n(C3CC3)c(=O)c3c(Nc4ccc(I)cc4F)n(C)c(=O)c(C)c32)c1 [Trametinib]; conditions: max 1 µM
Method in brief: as §1

[5] = compound: CC(=O)O[C@H]1C(=O)[C@@]2(C)[C@H]([C@H](OC(=O)c3ccccc3)[C@]3(O)C[C@H](OC(=O)[C@H](O)[C@@H](NC(=O)c4ccccc4)c4ccccc4)C(C)=C1C3(C)C)[C@]1(OC(C)=O)CO[C@@H]1C[C@@H]2O [Paclitaxel]; conditions: max 3 µM
Method in brief: as §1

[6] = compound: CC(=O)c1c(C)c2cnc(Nc3ccc(N4CCNCC4)cn3)nc2n(C2CCCC2)c1=O [Palbociclib]; conditions: max 10 µM
Method in brief: as §1

[7] = compound: CC(C)n1c(=O)n(C)c2cnc3cc(F)c(-c4ccc(OCCCN5CCCCC5)nc4)cc3c21 [AZD1390]; conditions: max 0.3 µM
Method in brief: as §1

[8] = compound: CC1(C)CCC(CN2CCN(c3ccc(C(=O)NS(=O)(=O)c4ccc(NCC5CCOCC5)c([N+](=O)[O-])c4)c(Oc4cnc5[nH]ccc5c4)c3)CC2)=C(c2ccc(Cl)cc2)C1 [Venetoclax]; conditions: max 1 µM
Method in brief: as §1

[9] = compound: CC1=C(C(=CC=C1)Cl)NC(=O)C2=CN=C(S2)NC3=CC(=NC(=N3)C)N4CCN(CC4)CCO [Dasatinib]; conditions: max 2 µM
Method in brief: as §1

[10] = compound: CC1=CN2[C@@H](C1)C=NC3=CC(=C(C=C3C2=O)OC)OCCCCCOC4=C(C=C5C(=C4)N=C[C@@H]6CC(=CN6C5=O)C)OC [SG3199]; conditions: max 0.001 µM
Method in brief: as §1

[11] = compound: CCN(CCO)CCCOc1ccc2c(Nc3cc(CC(=O)Nc4cccc(F)c4)[nH]n3)ncnc2c1 [AZD2811]; conditions: max 1 µM
Method in brief: as §1

[12] = compound: CCc1c2c(nc3ccc(O)cc13)-c1cc3c(c(=O)n1C2)COC(=O)[C@]3(O)CC [SN-38]; conditions: max 0.3 µM
Method in brief: as §1

[13] = compound: CN(C)CCCOc1ccc(-c2ccc3ncc4c(c3c2)n(C2CCOCC2)c(=O)n4C)cn1 [AZD0156]; conditions: max 3 µM
Method in brief: as §1

[14] = compound: CN(CC[C@H](CSC1=CC=CC=C1)NC2=C(C=C(C=C2)S(=O)(=O)NC(=O)C3=CC=C(C=C3)N4CCC(CC4)[C@H](C5=CC=CC=C5C6=CC=C(C=C6)Cl)O)S(=O)(=O)C(F)(F)F)CCO [AZD4320]; conditions: max 1 µM
Method in brief: as §1

[15] = compound: COc1cc(Nc2ncc3c(n2)-c2ccc(Cl)cc2C(c2c(F)cccc2OC)=NC3)ccc1C(=O)O [Alisertib]; conditions: max 10 µM
Method in brief: as §1

[16] = compound: COc1cc([C@@H]2c3cc4c(cc3[C@@H](O[C@@H]3O[C@@H]5CO[C@@H](C)O[C@H]5[C@H](O)[C@H]3O)[C@H]3COC(=O)[C@H]23)OCO4)cc(OC)c1O [Etoposide]; conditions: max 10 µM
Method in brief: as §1

[17] = compound: COc1cc2ncnc(Nc3ccc(F)c(Cl)c3)c2cc1OCCCN1CCOCC1 [Gefitinib]; conditions: max 10 µM
Method in brief: as §1

[18] = compound: COc1cccc(OCCCN)c1-c1cc(Nc2cnc(C#N)cn2)n[nH]1 [Prexasertib]; conditions: max 1 µM
Method in brief: as §1

[19] = compound: COc1cccc2c1C(=O)c1c(O)c3c(c(O)c1C2=O)C[C@@](O)(C(=O)CO)C[C@@H]3O[C@H]1C[C@H](N)[C@H](O)[C@H](C)O1 [Doxorubicin]; conditions: max 1 µM
Method in brief: as §1

[20] = compound: COc1nnc2ccc(N3CCC(c4ccc(OCCN5CCN(C)C(=O)[C@H]5C)cc4)CC3)nn12 [AZD5153]; conditions: max 1 µM
Method in brief: as §1

[21] = compound: CS(=O)(=O)CCNCc1ccc(-c2ccc3ncnc(Nc4ccc(OCc5cccc(F)c5)c(Cl)c4)c3c2)o1 [Lapatinib]; conditions: max 10 µM
Method in brief: as §1

[22] = compound: C[C@@H](Nc1cc(F)cc(F)c1)c1cc(C(=O)N(C)C)cc2c(=O)cc(N3CCOCC3)oc12 [AZD8186]; conditions: max 10 µM
Method in brief: as §1

[23] = compound: C[C@@H](Oc1cc(-c2cnn(C3CCNCC3)c2)cnc1N)c1c(Cl)ccc(F)c1Cl [Crizotinib]; conditions: max 10 µM
Method in brief: as §1

[24] = compound: C[C@@H](c1ccc2nccn2c1)n1nnc2ncc(-c3cnn(C)c3)nc21 [Savolitinib]; conditions: max 1 µM
Method in brief: as §1

[25] = compound: C[C@@H]1COCCN1C2=NC(=NC(=C2)C3(CC3)[S@](=N)(=O)C)C4=C5C=CNC5=NC=C4 [AZD6738]; conditions: max 10 µM
Method in brief: as §1

[26] = compound: Cc1c2c(nn1C)CSCc1cc(n(C)n1)CSc1cc(c3ccccc3c1)OCCCc1c(C(=O)O)n(C)c3c-2c(Cl)ccc13 [AZD5991]; conditions: max 1 µM
Method in brief: as §1

[27] = compound: Cc1cc2ncnn2cc1Nc1ncc2c(n1)n(C1CCOCC1)c(=O)n2C [AZD7648]; conditions: max 10 µM
Method in brief: as §1

[28] = compound: Cc1nc(-c2cn3c(n2)-c2ccc(-c4cnn(C(C)(C)C(N)=O)c4)cc2OCC3)n(C(C)C)n1 [Taselisib]; conditions: max 10 µM
Method in brief: as §1

[29] = compound: Cn1cnc2c(F)c(Nc3ccc(Br)cc3Cl)c(C(=O)NOCCO)cc21 [Selumetinib]; conditions: max 10 µM
Method in brief: as §1

[30] = compound: N#Cc1cnc(Nc2cc(NC[C@H]3CNCCO3)c(C(F)(F)F)cn2)cn1 [SRA737]; conditions: max 10 µM
Method in brief: as §1

[31] = compound: NC1(c2ccc(-c3nc4ccn5c(=O)[nH]nc5c4cc3-c3ccccc3)cc2)CCC1 [MK-2206]; conditions: max 10 µM
Method in brief: as §1

[32] = compound: Nc1ccn([C@@H]2O[C@H](CO)[C@@H](O)C2(F)F)c(=O)n1 [Gemcitabine]; conditions: max 0.3 µM
Method in brief: as §1

[33] = compound: O=C(Nc1ccc2[nH]nc(-c3ccncc3)c2c1)[C@@H]1CCN(CC(=O)N2CCN(c3ccc(-c4ncccn4)cc3)CC2)C1; conditions: max 5 µM
Method in brief: as §1

[34] = compound: O=C(c1cc(Cc2n[nH]c(=O)c3ccccc23)ccc1F)N1CCN(C(=O)C2CC2)CC1 [Olaparib]; conditions: max 10 µM
Method in brief: as §1

[35] = compound: O=c1[nH]cc(F)c(=O)[nH]1 [5-Fluorouracil]; conditions: max 20 µM
Method in brief: as §1

| Cell Line | IC50, cell viability 72 h [1] | IC50, cell viability 72 h [2] | IC50, cell viability 72 h [3] | IC50, cell viability 72 h [4] | IC50, cell viability 72 h [5] | IC50, cell viability 72 h [6] | IC50, cell viability 72 h [7] | IC50, cell viability 72 h [8] | IC50, cell viability 72 h [9] | IC50, cell viability 72 h [10] | IC50, cell viability 72 h [11] | IC50, cell viability 72 h [12] | IC50, cell viability 72 h [13] | IC50, cell viability 72 h [14] | IC50, cell viability 72 h [15] | IC50, cell viability 72 h [16] | IC50, cell viability 72 h [17] | IC50, cell viability 72 h [18] | IC50, cell viability 72 h [19] | IC50, cell viability 72 h [20] | IC50, cell viability 72 h [21] | IC50, cell viability 72 h [22] | IC50, cell viability 72 h [23] | IC50, cell viability 72 h [24] | IC50, cell viability 72 h [25] | IC50, cell viability 72 h [26] | IC50, cell viability 72 h [27] | IC50, cell viability 72 h [28] | IC50, cell viability 72 h [29] | IC50, cell viability 72 h [30] | IC50, cell viability 72 h [31] | IC50, cell viability 72 h [32] | IC50, cell viability 72 h [33] | IC50, cell viability 72 h [34] | IC50, cell viability 72 h [35] |
| --- | --- | --- | --- | --- | --- | --- | --- | --- | --- | --- | --- | --- | --- | --- | --- | --- | --- | --- | --- | --- | --- | --- | --- | --- | --- | --- | --- | --- | --- | --- | --- | --- | --- | --- | --- |
| RMG-I (Ovarian Carcinoma) | > 10 µM | > 10 µM | > 3 µM | > 1 µM | > 3 µM | > 10 µM | > 0.3 µM | > 1 µM | > 2 µM | > 0.001 µM | > 1 µM | > 0.3 µM | > 3 µM | 0.593 µM | > 10 µM | > 10 µM | > 10 µM | 0.301 µM | > 1 µM | 0.647 µM | > 10 µM | > 10 µM | > 10 µM | > 1 µM | > 10 µM | > 1 µM | > 10 µM | 8.32 µM | > 10 µM | > 10 µM | > 10 µM | > 0.3 µM | > 5 µM | > 10 µM | > 20 µM |
| SK-MM-2 (Plasma Cell Myeloma) | > 10 µM | > 10 µM | > 3 µM | > 1 µM | > 3 µM | > 10 µM | > 0.3 µM | 0.0025 µM | > 2 µM | > 0.001 µM | > 1 µM | 0.0764 µM | > 3 µM | 0.00302 µM | 1.81 µM | > 10 µM | > 10 µM | 0.119 µM | > 1 µM | 0.0325 µM | > 10 µM | > 10 µM | > 10 µM | > 1 µM | > 10 µM | > 1 µM | > 10 µM | > 10 µM | > 10 µM | > 10 µM | > 10 µM | > 0.3 µM | > 5 µM | > 10 µM | > 20 µM |
| SW684 (Other Solid Carcinomas) | > 10 µM | > 10 µM | > 3 µM | > 1 µM | 1.43 µM | > 10 µM | > 0.3 µM | > 1 µM | > 2 µM | > 0.001 µM | > 1 µM | > 0.3 µM | > 3 µM | > 1 µM | > 10 µM | > 10 µM | > 10 µM | > 1 µM | > 1 µM | > 1 µM | > 10 µM | > 10 µM | > 10 µM | > 1 µM | > 10 µM | > 1 µM | > 10 µM | 3.53 µM | > 10 µM | > 10 µM | > 10 µM | > 0.3 µM | > 5 µM | > 10 µM | > 20 µM |
